Reference: PMC6778101 (Nature Communications, 2019)
Read-outs that look alike come from different tables or passages of the source. Ends that are not written are not given here.

How the values were obtained:
Format in all cases: cell-based, Escherichia coli
E. coli K-12 BW25113 [1] = experiment: microbe, parasite or virus in culture
Description: Unless otherwise indicated, Minimal Salt (MS) medium was used in all experiments, including the laboratory evolution experiments. In line with previous, methodologically relevant laboratory evolution studies, the physical conditions (including the medium) were the same during the course of laboratory evolution and all forthcoming assays on the resulting resistant lines (e.g. MIC measurements). We previously optimized this medium for studying AMPs (1 g L^−1 (NH4)2SO4, 3 g L^−1 KH2PO4 and 7 g L^−1 K2HPO4 supplemented with 0.1 mM MgSO4, 0.54 µg mL^−1 FeCl3, 1 µg mL^−1 thiamine hydrochloride, 0.2% Casamino acids and 0.2% glucose)[19]. This medium is highly controlled and provides a reproducible environment for experimental evolution experiments. All components were obtained from Sigma-Aldrich.
MICs were determined using a standard serial broth dilution technique. Briefly, 11-step serial dilutions were prepared in 96-well microtiter plates with three replicates per strain and antimicrobial compound. Each experiment was repeated at least twice. 5 × 10^5 cells/mL were inoculated into each well, and the plates were incubated at 30 °C in case of E. coli K-12 BW25113, and its antibiotic and AMP-adapted lines, or 37 °C in case of the other bacterial species. […] Cell growth was monitored by measuring the optical density (OD600 value, Biotek Synergy 2 microplate reader was used for this purpose). […] Relative MIC was calculated as follows: MICrelative = MICevolved/MICcontrol.

[2] = test system: E. coli K-12 BW25113 carrying ASKA plasmids; experiment: microbe, parasite or virus in culture; conditions: MS medium + 10 µg mL−1 CHL + 500 µM IPTG, 5 × 10^5 cells, 16–18 h, 37 °C; for MIC: Escherichia coli
Description: Bacterial gene amplification generates extensive genetic variation that can provide drug resistance[37],[38]. As gene amplification events tend to be genetically unstable and reduce bacterial fitness, they are transient in nature. Using the ASKA library, which comprises each E. coli ORF cloned into an expression vector[40], we have conducted a global survey to evaluate whether artificially amplified genes provide resistance to any of the 14 AMPs and 11 antibiotics tested. As chloramphenicol (CHL) was used as a selection marker for the ASKA plasmid, this antibiotic was not tested in this screen. E. coli K-12 BW25113 cells were transformed with the pooled plasmids of the ASKA library, and the genetically mixed populations were exposed to increasing levels of AMP or antibiotic stresses, respectively. In all cases, the employed AMP or antibiotic dosages were above the MIC of the wild type. For each drug, we identified the MIC provided in the pooled ASKA plasmid library, and compared it to the MIC of the wild-type strain carrying the empty ASKA plasmid.
The ASKA library (a complete set of E. coli K-12 ORF archive) includes every E. coli ORF cloned into an expression vector (pCA24N)[65]. Prior to screening, the ASKA plasmid collection was pooled and transformed into E. coli K-12 BW25113 strain[66]. The plasmid pool was created by pooling an equal aliquot of cells, each carrying different members of the ASKA library, followed by plasmid miniprep. Next, the plasmid pool was electroporated into E. coli K-12 BW25113 competent cells. […] For the MICs measurements 500 000 cells were inoculated in each well which represents ~100 times coverage of each library member. […] Prior to the measurements the cell population containing the pooled overexpression library or the control strain containing the empty vector were grown in three replicates in LB medium supplemented with 20 µg/mL CHL. As the culture reached high density (i.e., OD600 > 0.8), expression of the plasmid was induced by 50 µM IPTG for 1 h. Following induction, 5 × 10^5 bacterial cells were inoculated in three replicates into each well of the 96-well plate and incubated for 16–18 h at 37 °C. Following incubation the MIC values were determined by measuring optical densities in a plate reader (Biotek Synergy).

E. coli K-12 BW25113 [3] = experiment: Laboratory evolution of resistance, MIC fold change of adapted lines; conditions: ~120 generations under increasing drug concentration
Description: Our first goal was to study resistance evolution against a set of AMPs and antibiotics. We have followed established protocols with minor modifications to evolve bacterial populations under controlled laboratory conditions[19],[20]. The applied protocol aims to maximize the level of drug resistance in the evolving populations achieved during a fixed time period. We have initiated a laboratory evolution experiment, starting with a single clone of Escherichia coli K-12 BW25113 (abbreviated as E. coli K-12 BW25113). Parallel evolving populations were exposed to increasing concentrations of one of 14 AMPs (Supplementary Table 1). Peptides were chosen based on the following criteria: diverse sources (synthetic/natural), different putative mechanisms of action, structural diversity, and clinical relevance. Another set of populations were exposed to one of 12 clinically relevant antibiotics (Supplementary Table 2), using the same protocol. Accordingly, we have propagated 10 independent populations in the presence of each AMP or antibiotic for ∼120 generations. We isolated a single, representative clone from each population, resulting in 140 AMP-adapted lines and 120 antibiotic-adapted lines. Throughout the paper, we compare the level of resistance in the evolved lines to the corresponding wild-type strain by measuring changes in the drugs’ minimum inhibitory concentrations (MIC).
The evolutionary protocol was designed to avoid population extinction and to ensure that populations with the highest level of resistance were propagated further. Starting with a subinhibitory drug concentration (Supplementary Data 8), resulting in ~50% growth inhibition, 10 parallel populations per drug were allowed to grow in Minimal Salts medium for 72 h and 300 r.p.m. E. coli K-12 BW25113 and E. coli mutD5 populations were incubated at 30 °C, while E. coli ATCC 25922, S. enterica LT2, K. pneumonia ATCC 10031, and A. baumannii ATCC 17978 were incubated at 37 °C. […] Prior to each transfer, cell growth was monitored by measuring the optical density at 600 nm (OD600 value, Biotek Synergy 2 microplate reader). Only populations with the highest drug concentration (and reaching OD600 > 0.2) were selected for further evolution. A chess-board layout was used on the plate to monitor potential cross-contamination events. […] E. coli mutD5 was adapted to TPII, also in 10 parallel evolving populations.
MICs were determined using a standard serial broth dilution technique. Briefly, 11-step serial dilutions were prepared in 96-well microtiter plates with three replicates per strain and antimicrobial compound. Each experiment was repeated at least twice. 5 × 10^5 cells/mL were inoculated into each well, and the plates were incubated at 30 °C in case of E. coli K-12 BW25113, and its antibiotic and AMP-adapted lines, or 37 °C in case of the other bacterial species. Plates were shaken at 300 r.p.m. during incubation for 24 and 18 h, respectively. Cell growth was monitored by measuring the optical density (OD600 value, Biotek Synergy 2 microplate reader was used for this purpose). […] Relative MIC was calculated as follows: MICrelative = MICevolved/MICcontrol.

[4] = starting wild-type strain of the evolution experiment, broth dilution, MS medium, 5 × 10^5 cells/mL, 30 °C, 24 h, MIC = OD600 < 0.05
[5] = Escherichia coli, BW25113, 24 h, read-out: MIC
[6] = BW25113, Replicate 1, read-out: MIC value of E. coli K-12 BW25113 carrying the empty plasmid of the ASKA library
[7] = BW25113, Replicate 1, read-out: MIC value of E. coli K-12 BW25113 carrying the pooled plasmids of the ASKA library
[8] = BW25113, Replicate 2, read-out: MIC value of E. coli K-12 BW25113 carrying the empty plasmid of the ASKA library
[9] = BW25113, Replicate 2, read-out: MIC value of E. coli K-12 BW25113 carrying the pooled plasmids of the ASKA library
[10] = BW25113, Replicate 3, read-out: MIC value of E. coli K-12 BW25113 carrying the empty plasmid of the ASKA library
[11] = BW25113, Replicate 3, read-out: MIC value of E. coli K-12 BW25113 carrying the pooled plasmids of the ASKA library

Row | Compound | MIC (E. coli K-12 BW25113 [1]; [4]) [µg/mL] | MIC value of E. coli K-12 BW25113 carrying the empty plasmid of the ASKA library ([2]; Replicate 1) [µg/mL] | MIC value of E. coli K-12 BW25113 carrying the pooled plasmids of the ASKA library ([2]; Replicate 1) [µg/mL] | MIC value of E. coli K-12 BW25113 carrying the empty plasmid of the ASKA library ([2]; Replicate 2) [µg/mL] | MIC value of E. coli K-12 BW25113 carrying the pooled plasmids of the ASKA library ([2]; Replicate 2) [µg/mL] | MIC value of E. coli K-12 BW25113 carrying the empty plasmid of the ASKA library ([2]; Replicate 3) [µg/mL] | MIC value of E. coli K-12 BW25113 carrying the pooled plasmids of the ASKA library ([2]; Replicate 3) [µg/mL] | resistance in evolved lines after laboratory evolution (in words) (E. coli K-12 BW25113 [3]) | MIC (E. coli K-12 BW25113 [1]; [5]) [µg/mL] | MIC [2, 6] [µg/mL] | MIC [2, 7] [µg/mL] | MIC [2, 8] [µg/mL] | MIC [2, 9] [µg/mL] | MIC [2, 10] [µg/mL] | MIC [2, 11] [µg/mL] | MIC (E. coli K-12 BW25113 [1]; Escherichia coli, BW25113, 24 h) [µg/mL]
1 | RRRPRPPYLPRPRPPPFFPPRLPPRIPPGFPPRFPPRFP [PR39] | 5 | 5.79 | 5.79 | 5.79 | 5.79 | 5.79 | 5.79 |  |  |  |  |  |  |  |  | 
2 | TSSPPAAVVVRRRRRRRRRRRRRRRRRRR [PROA, protamine, cationic AMP purchased from Sigma-Aldrich] | 310 | 126.51 | 126.51 | 126.51 | 36.15 | 442.78 | 442.78 | isolated resistant mutants |  |  |  |  |  |  |  | 
3 | GLRKRLRKFRNKIKEKLKKIGQKIQGFVPKLAPRTDY [CAP18, rabbit CAP18] | 120 | 24.11 | 24.11 | 20.09 | 24.11 | 24.11 | 24.11 |  |  |  |  |  |  |  |  | 
4 | CCn1cc(C(=O)O)c(=O)c2ccc(C)nc21 [NAL, Nalidixic acid] |  |  |  |  |  |  |  |  | 6.35 | 0.37 | 1.05 | 0.37 | 1.05 | 0.37 | 1.05 | 
5 | CC[C@H]1OC(=O)[C@H](C)[C@@H](O[C@H]2C[C@@](C)(OC)[C@@H](O)[C@H](C)O2)[C@H](C)[C@@H](O[C@@H]2O[C@H](C)C[C@H](N(C)C)[C@H]2O)[C@](C)(O)C[C@@H](C)C(=O)[C@H](C)[C@@H](O)[C@]1(C)O [ERY, Erythromycin] |  |  |  |  |  |  |  |  |  | 11 | 18.6 | 14.3 | 24.1 | 14.3 | 24.1 | 
6 | C[C@H]1c2cccc(O)c2C(=O)C2=C(O)[C@]3(O)C(=O)C(C(N)=O)=C(O)[C@@H](N(C)C)[C@@H]3[C@@H](O)[C@@H]21 [DOX, Doxycycline] |  |  |  |  |  |  |  |  | 1.5 | 0.56 | 1.59 | 0.43 | 1.59 | 0.56 | 1.59 | 
7 | CO[C@@]1(NC(=O)Cc2cccs2)C(=O)N2C(C(=O)O)=C(COC(N)=O)CS[C@@H]21 [FOX, Cefoxitin] |  |  |  |  |  |  |  |  | 4.9 | 6.07 | 69.2 | 6.07 | 69.2 | 6.07 | 69.2 | 
8 | O=C1CN(/N=C/c2ccc([N+](=O)[O-])o2)C(=O)N1 [NIT, Nitrofurantoin] |  |  |  |  |  |  |  |  |  | 6.53 | 14.7 | 6.53 | 14.7 | 6.53 | 6.53 | 35
9 | CN(C)[C@@H]1C(O)=C(C(N)=O)C(=O)[C@@]2(O)C(O)=C3C(=O)c4c(O)cccc4[C@@](C)(O)[C@H]3C[C@@H]12 [TET, Tetracycline] |  |  |  |  |  |  |  |  | 1.2 | 0.62 | 1.29 | 0.62 | 1.07 | 0.62 | 1.07 | 
10 | FLGKVFKLASKVFKAVFGKV [R8] | 20 | 11.57 | 11.57 | 11.57 | 11.57 | 11.57 | 9.46 |  |  |  |  |  |  |  |  | 
